Test results as given in US20130165475A1, “DEUTERIUM-ENRICHED HETEROCYCLIC COMPOUNDS AS KINASE INHIBITORS” (ASCEPION PHARMACEUTICALS, INC., priority 2010, published 2013).
Counter-ions that a name gives are not always drawn.

Experiments:
PDGFRβ = target: T1, PDGFRβ (Homo sapiens, UniProt P09619); assay: PDGFRβ cell-based assay (ELISA, phosphor-/total PDGFRβ in transfected CHO cells); details: compound at 100 nM; CHO cells transfected with full length PDGFRβ; FBS stimulation; read-out: % PDGFRβ kinase activity remains
T1 construct: expressed in transfected cells; host or cells: CHO cells
T1 sequence (P09619 33-1106): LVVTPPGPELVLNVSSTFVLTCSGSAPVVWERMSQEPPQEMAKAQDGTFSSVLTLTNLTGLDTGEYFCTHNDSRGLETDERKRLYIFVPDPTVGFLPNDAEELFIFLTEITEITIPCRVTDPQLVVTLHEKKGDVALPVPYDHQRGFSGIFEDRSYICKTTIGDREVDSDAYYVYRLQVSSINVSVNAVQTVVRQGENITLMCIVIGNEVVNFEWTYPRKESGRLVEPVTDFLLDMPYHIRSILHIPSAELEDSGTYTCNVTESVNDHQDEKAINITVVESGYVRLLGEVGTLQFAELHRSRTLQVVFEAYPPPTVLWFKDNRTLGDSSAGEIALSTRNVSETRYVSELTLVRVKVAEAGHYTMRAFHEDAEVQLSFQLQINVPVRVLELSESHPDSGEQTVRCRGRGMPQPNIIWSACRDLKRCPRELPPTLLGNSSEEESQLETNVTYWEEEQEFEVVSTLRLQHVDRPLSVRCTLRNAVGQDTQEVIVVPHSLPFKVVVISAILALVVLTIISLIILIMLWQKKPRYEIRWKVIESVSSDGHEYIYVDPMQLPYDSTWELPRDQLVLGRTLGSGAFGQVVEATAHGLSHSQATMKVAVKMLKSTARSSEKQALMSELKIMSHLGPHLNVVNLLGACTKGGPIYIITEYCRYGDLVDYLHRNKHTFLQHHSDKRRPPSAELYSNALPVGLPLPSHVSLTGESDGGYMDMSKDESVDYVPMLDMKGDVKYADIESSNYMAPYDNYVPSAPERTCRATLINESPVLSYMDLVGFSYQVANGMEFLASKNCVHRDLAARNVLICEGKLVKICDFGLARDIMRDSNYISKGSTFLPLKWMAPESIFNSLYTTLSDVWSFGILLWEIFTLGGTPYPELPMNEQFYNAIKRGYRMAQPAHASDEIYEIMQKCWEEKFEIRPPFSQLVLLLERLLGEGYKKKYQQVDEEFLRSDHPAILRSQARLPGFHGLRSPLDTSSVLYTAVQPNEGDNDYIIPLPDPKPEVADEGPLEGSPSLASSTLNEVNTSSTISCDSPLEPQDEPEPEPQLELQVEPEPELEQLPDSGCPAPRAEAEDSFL
Source text: A standard cell-based assay for PDGFRβ kinase activity can be used to test or screen the compounds of this invention and to identify PDGFRβ antagonists. In this example, ELISA kits (R&D Systems, Inc., Minneapolis, Minn. 55413, USA) were used.
(§1) The activity of PDGFRβ in cells depended on its autophosphorylation level by various factors including growth factors. In order to induce the cell to produce PDGFRβ, full length of PDGFRβ sequence was cloned into PC-DNA3.1 vector, the plasmid was then transfected into CHO cells. After 48 hours, the expression of PDGFRβ in transfected CHO cells was confirmed by regular western blotting.
A compound to be tested was first dissolved in DMSO to a concentration of 10 mM and stored at −20° C. One day before the screening, CHO cells transfected with full length PDGFRβ plasmid were grown in DMEM medium without the presence of serum. On the day of screening procedure, the compounds with various concentration in DMSO (from 0.5 nM to 500 nM) were added into DMEM medium, two hours later, 20% of FBS (Fetal Bovine Serum) was added into the medium to stimulate the production of phosphor-PDGFRβ. Cell lysate from approximately 5×10^5 transfected CHO cells were reacted with anti-phosphor PDGFRβ or anti-total PDGFRβ antibody in 96 well plates, in the presence of detection antibody. The phosphor-PDGFRβ or total PDGFRβ were detected with Streptavidin-HRP (R&D Systems), followed by chemiluminescent detection. The level of PDGFRβ kinase activity was quantified as the ratio between the amount of phosphor- and that of total PDGFRβ proteins.

c-Met = target: T2, c-Met (Homo sapiens, UniProt P08581); assay: c-Met cell-based assay (ELISA, phosphor-/total c-Met in transfected CHO cells, HGF stimulated); details: compound at 100 nM; CHO cells transfected with full length c-Met; HGF 100 ng/mL
T2 construct: expressed in transfected cells; host or cells: CHO cells
T2 sequence (P08581 25-1390): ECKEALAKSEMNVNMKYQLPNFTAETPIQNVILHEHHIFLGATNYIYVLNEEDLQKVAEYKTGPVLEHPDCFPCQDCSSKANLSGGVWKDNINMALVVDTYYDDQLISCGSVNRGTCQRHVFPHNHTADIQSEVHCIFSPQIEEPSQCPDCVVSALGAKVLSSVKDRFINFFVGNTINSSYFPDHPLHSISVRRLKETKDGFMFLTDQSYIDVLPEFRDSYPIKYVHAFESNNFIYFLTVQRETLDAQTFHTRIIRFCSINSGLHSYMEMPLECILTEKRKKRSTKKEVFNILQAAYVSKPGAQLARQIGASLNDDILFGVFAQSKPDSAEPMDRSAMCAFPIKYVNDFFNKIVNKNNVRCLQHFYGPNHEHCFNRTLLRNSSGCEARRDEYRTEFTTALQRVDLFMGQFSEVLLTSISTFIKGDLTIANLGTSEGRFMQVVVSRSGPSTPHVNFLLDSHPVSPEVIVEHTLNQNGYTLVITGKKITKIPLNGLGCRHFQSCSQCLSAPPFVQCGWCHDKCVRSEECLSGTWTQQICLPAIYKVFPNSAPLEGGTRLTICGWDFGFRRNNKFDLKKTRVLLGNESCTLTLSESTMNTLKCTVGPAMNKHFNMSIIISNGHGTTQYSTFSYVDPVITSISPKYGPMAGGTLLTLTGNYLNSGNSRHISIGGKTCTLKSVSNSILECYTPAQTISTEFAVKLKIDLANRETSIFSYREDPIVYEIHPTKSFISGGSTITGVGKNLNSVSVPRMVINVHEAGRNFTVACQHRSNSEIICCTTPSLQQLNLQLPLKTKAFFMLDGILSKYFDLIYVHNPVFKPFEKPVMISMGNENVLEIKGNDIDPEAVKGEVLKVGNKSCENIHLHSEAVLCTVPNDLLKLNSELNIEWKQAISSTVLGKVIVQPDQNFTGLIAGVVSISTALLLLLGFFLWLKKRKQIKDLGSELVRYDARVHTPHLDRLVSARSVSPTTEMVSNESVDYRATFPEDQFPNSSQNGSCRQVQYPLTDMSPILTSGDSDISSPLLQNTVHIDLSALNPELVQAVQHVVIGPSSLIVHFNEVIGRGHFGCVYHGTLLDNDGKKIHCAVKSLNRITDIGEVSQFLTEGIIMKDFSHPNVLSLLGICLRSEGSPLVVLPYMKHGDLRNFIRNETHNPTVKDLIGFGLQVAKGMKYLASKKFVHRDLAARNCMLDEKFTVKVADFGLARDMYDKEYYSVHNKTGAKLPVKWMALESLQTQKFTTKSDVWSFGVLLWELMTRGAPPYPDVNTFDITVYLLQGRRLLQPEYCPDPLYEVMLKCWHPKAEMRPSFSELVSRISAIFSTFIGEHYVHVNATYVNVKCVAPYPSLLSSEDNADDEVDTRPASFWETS
Source text: A standard cell-based assay for c-Met kinase activity can be used to test or screen the compounds of this invention and to identify c-Met antagonists. In this example, ELISA kits (R&D Systems, Inc., Minneapolis, Minn. 55413, USA) were used.
as §1, with “c-Met” for “PDGFRβ”, “it specific” for “various factors including”, “factor-Hepatocyte growth factor (HGF).” for “factors.”, “c-Met,” for “PDGFRβ,”
A compound to be tested was first dissolved in DMSO to a concentration of 10 mM and stored at −20° C. One day before the screening, CHO cells transfected with full length c-Met plasmid were grown in DMEM medium without the presence of serum. On the day of screening procedure, the compounds with various concentration in DMSO (from 0.5 nM to 500 nM) were added into DMEM medium, two hours later, Hepatocyte growth factor (HGF) was added into the medium at the concentration of 100 ng/mL to stimulate the production of phosphor-c-Met. Cell lysate from approximately 5×10^5 transfected CHO cells were reacted with anti-phosphor c-Met or anti-total c-Met antibody in 96 well plates, in the presence of detection antibody. The phosphor-c-Met or total c-Met were detected with Streptavidin-HRP (R&D Systems), followed by chemiluminescent detection. The level of c-Met kinase activity was quantified as the ratio between the amount of phosphor- and that of total c-Met proteins.

Rat liver microsome = assay: Liver microsomal stability assay, rat; type: in vitro ADME; parameters: key: A: the percentage of a compound remains is greater than that of its deuterium non-enriched counterpart; B: a result otherwise; details: 40 μM, 37° C., 30 min, 1 mg/ml microsome proteins; class relative to deuterium non-enriched counterpart
Procedure: (§2) A standard liver microsomal stability assay can be used to test or screen the compounds of this invention and to identify compounds with enhanced metabolic stability due to the enrichment of deuterium in the compounds. Liver microsome proteins prepared from different species such as mouse and rat were obtained from a commercial source (Research Institute for Liver Diseases, Shanghai, China). The assay was conducted in 1.5% potassium hydrogenphosphate (K2HPO4) in the presence of liver microsome proteins at 1 mg/ml and supplemented with an […] (3.3 mM NADPH, 3.3 mM glucose-6-phosphate, 6 units/ml G6PDase, and 3.3 mM magnesium chloride). Test compound was added into the assay mixture to a final concentration of 40 μM and incubated at 37° C. for 0 or 30 minutes. The reaction was stopped by the addition of 20 μM Bifonazole/CAN. Samples were then centrifuged at 14000 rpm for 10 minutes to precipitate proteins. Supernatant were then transferred to microcentrifuge tubes and subject to reverse phase HPLC analysis to determine the concentration of test compound.
(§3) The percentage of compounds that remained in the assay reactions after a thirty-minute incubation at 37° C. is calculated as the ratio between the amount of compound remained after a thirty-minute and that after a zero-minute incubation.

Mouse liver microsome = assay: Liver microsomal stability assay, mouse; type: in vitro ADME; parameters: key: A: the percentage of a compound remains is greater than that of its deuterium non-enriched counterpart; B: a result otherwise; details: 40 μM, 37° C., 30 min, 1 mg/ml microsome proteins; class relative to deuterium non-enriched counterpart
Procedure: as §2, §3

SMILES	remaining activity at 0.1 µM (PDGFRβ) [%]	% of compound remained at the 30th minutes, Rat liver microsome (Rat liver microsome)	% of compound remained at the 30th minutes, Mouse liver microsome (Mouse liver microsome)	% C-Met kinase activity remains (c-Met)
Cl.[2H]C([2H])(c1ccnc(N)c1)n1ccc2c(NC(=O)Nc3cc(Cl)ccc3OC)cccc21 [Example 2, 1-[1-[(2-amino-4-pyridyl)-dideuteriomethyl]indol-4-yl]-3-(5-chloro-2-methoxyphenyl)urea hydrochloride]	< 70	A	A	B (the percentage is greater or equal to 70%)
[2H]C([2H])([2H])Oc1ccc(Cl)cc1NC(=O)Nc1cccc2c1ccn2C([2H])([2H])c1ccnc(N)c1 [Example 4, 1-[1-[(2-amino-4-pyridyl)-dideuteriomethyl]indol-4-yl]-3-[5-chloro-2-(trideuteriomethoxy)phenyl]urea]	≥ 70	A	B	A (the percentage of kinase activity remains is below 70%)
[2H]C([2H])([2H])Oc1ccc(Cl)cc1NC(=O)Nc1cccc2c1ccn2Cc1ccnc(N)c1 [Example 6, 1-[1-[(2-amino-4-pyridyl)methyl]indol-4-yl]-3-[5-chloro-2-(trideuteriomethoxy)phenyl]urea]	< 70	A	B	A (the percentage of kinase activity remains is below 70%)
Cl.[2H]C([2H])([2H])Oc1ccc(Cl)cc1NC(=O)Nc1cccc2c1ccn2C([2H])([2H])c1ccnc2[nH]ccc12 [Example 8, 1-[5-chloro-2-(trideuteriomethoxy)phenyl]-3-[1-[dideuterio(1H-pyrrolo[2,3-b]pyridin-4-yl)methyl]indol-4-yl]urea hydrochloride]	< 70	A	A	A (the percentage of kinase activity remains is below 70%)
[2H]C([2H])(c1ccnc2[nH]ccc12)N1CCc2c(NC(=O)Nc3cc(Cl)ccc3OC)cccc21 [Example 9, 1-(5-Chloro-2-methoxyphenyl)-3-[1-[dideuterio(1H-pyrrolo[2,3-b]pyridin-4-yl)methyl]indolin-4-yl]urea hydrochloride]	< 70	A	A	A (the percentage of kinase activity remains is below 70%)
[2H]C([2H])(c1ccnc2[nH]ccc12)n1ccc2c(NC(=O)Nc3cc(Cl)ccc3OC)cccc21 [Example 10, 1-(5-chloro-2-methoxyphenyl)-3-[1-[dideuterio(1H-pyrrolo[2,3-b]pyridin-4-yl)methyl]indol-4-yl]urea hydrochloride]	≥ 70	B	A	A (the percentage of kinase activity remains is below 70%)
[2H]C([2H])(c1ccnc2[nH]ccc12)N1CCc2c(NC(=O)Nc3cc(Cl)ccc3F)cccc21 [Example 11, 1-(5-Chloro-2-fluorophenyl)-3-[1-[dideuterio(1H-pyrrolo[2,3-b]pyridin-4-yl)methyl]indolin-4-yl]urea hydrochloride]	< 70	B	B	A (the percentage of kinase activity remains is below 70%)
[2H]C([2H])(c1ccnc2[nH]ccc12)n1ccc2c(NC(=O)Nc3cc(Cl)ccc3F)cccc21 [Example 12, 1-(5-chloro-2-fluorophenyl)-3-[1-[dideuterio(1H-pyrrolo[2,3-b]pyridin-4-yl)methyl]indol-4-yl]urea hydrochloride]	≥ 70	A	B	A (the percentage of kinase activity remains is below 70%)
[2H]C([2H])(c1ccnc2[nH]ccc12)N1CCc2c(NC(=O)Nc3cccc(C)c3)cccc21 [Example 13, 1-[1-[Dideuterio(1H-pyrrolo[2,3-b]pyridin-4-yl)methyl]indolin-4-yl]-3-(m-tolyl)urea hydrochloride]	< 70	A	A	A (the percentage of kinase activity remains is below 70%)

More lines, main results first:

remaining activity at 0.1 µM (PDGFRβ) [%]	% of compound remained at the 30th minutes, Rat liver microsome (Rat liver microsome)	% of compound remained at the 30th minutes, Mouse liver microsome (Mouse liver microsome)	SMILES	% C-Met kinase activity remains (c-Met)
< 70	A	A	[2H]C([2H])(c1ccnc(N)c1)N1CCc2c(NC(=O)Nc3cc(Cl)ccc3OC)cccc21 [Example 1, 1-[1-[(2-Amino-4-pyridyl)-dideuteriomethyl]indolin-4-yl]-3-(5-chloro-2-methoxyphenyl)urea]	B (the percentage is greater or equal to 70%)
≥ 70	A	B	[2H]C([2H])([2H])Oc1ccc(Cl)cc1NC(=O)Nc1cccc2c1CCN2C([2H])([2H])c1ccnc(N)c1 [Example 3, 1-[1-[(2-Amino-4-pyridyl)-dideuteriomethyl]indolin-4-yl]-3-[5-chloro-2-(trideuteriomethoxy)phenyl]urea]	A (the percentage of kinase activity remains is below 70%)
< 70	A	B	[2H]C([2H])([2H])Oc1ccc(Cl)cc1NC(=O)Nc1cccc2c1CCN2Cc1ccnc(N)c1 [Example 5, 1-[1-[(2-Amino-4-pyridyl)methyl]indolin-4-yl]-3-[5-chloro-2-(trideuteriomethoxy)phenyl]urea]	A (the percentage of kinase activity remains is below 70%)
< 70	A	A	Cl.[2H]C([2H])([2H])Oc1ccc(Cl)cc1NC(=O)Nc1cccc2c1CCN2C([2H])([2H])c1ccnc2[nH]ccc12 [Example 7, 1-[5-Chloro-2-(trideuteriomethoxy)phenyl]-3-[1-[dideuterio(1H-pyrrolo[2,3-b]pyridin-4-yl)methyl]indolin-4-yl]urea hydrochloride]	A (the percentage of kinase activity remains is below 70%)
